Measured values from ChEMBL document CHEMBL1201862, “PubChem BioAssay data set” (2004).
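Interpolation was linear, between the two tested concentrations surrounding the appropriate level; five concentrations were tested over 48 hours in 96-well plates. GI50: concentration for 50% inhibition of growth.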 Active and inactive are the calls of the source. Cut-off read from the data, not from the text of the source: active = GI50 up to about 1.1 µM and inactive = higher. Numbered stars: 1 amine (or outer) side, 2 acyl side, 3 side chain; on linkers, the order of the positions; unused ones are H or OH. Bridge positions count the residues as written; N and C are the ends. Square brackets hold non-standard residues; d marks the D form. Peptide text beside a SMILES is read from it. X58 = COc1c(N[*:1])cccc1C(=O)O[C@H](C(=O)[C@H](C)C(=O)[*:2])C(C)C; X57 = CC(C)C[C@H](C(=O)[*:2])C(C)C(=O)C1CCCN1[*:1]; NMeY = CN[C@@H](Cc1ccc(O)cc1)C(=O)O; Lac = C[C@H](O)C(=O)O

Key:
Experiment in all cases: DTP human tumour cell line panel, 48 h
NCI-H23 = test system: NCI-H23
RXF 393 = test system: RXF 393
UACC-62 = test system: UACC-62
Malme-3M = test system: Malme-3M
SNB-19 = test system: SNB-19
U-251 = test system: U-251
EKVX = test system: EKVX
SK-MEL-28 = test system: SK-MEL-28
SN12C = test system: SN12C
K562 = test system: K562
ACHN = test system: ACHN
HL-60 = test system: HL-60
MDA-MB-231 = test system: MDA-MB-231
MDA-MB-435 = test system: MDA-MB-435
SK-MEL-5 = test system: SK-MEL-5
MCF7 = test system: MCF7
UACC-257 = test system: UACC-257
OVCAR-4 = test system: OVCAR-4
NCI-H460 = test system: NCI-H460

Row | SMILES | GI50 (NCI-H23) | GI50 (RXF 393) | GI50 (UACC-62) | GI50 (Malme-3M) | GI50 (SNB-19) | GI50 (U-251) | GI50 (EKVX) | GI50 (SK-MEL-28) | GI50 (SN12C) | GI50 (K562) | GI50 (ACHN) | GI50 (HL-60) | GI50 (MDA-MB-231) | GI50 (MDA-MB-435) | GI50 (SK-MEL-5) | GI50 (MCF7) | GI50 (UACC-257) | GI50 (OVCAR-4) | GI50 (NCI-H460)
1 | O=C(CCCN1CCC2(CC1)CC(=O)N(N1CCOCC1)C2=O)c1ccccc1 | > 100 µM (inactive) | > 100 µM (inactive) | > 100 µM (inactive) | > 100 µM (inactive) | > 100 µM (inactive) | > 100 µM (inactive) | > 100 µM (inactive) | > 100 µM (inactive) | > 100 µM (inactive) | > 100 µM (inactive) | > 100 µM (inactive) | > 100 µM (inactive) | > 100 µM (inactive) | 19.1 µM (inactive) | > 100 µM (inactive) | > 100 µM (inactive) | > 100 µM (inactive) |  | 
2 | COc1ccc(Nc2ccc3ccccc3c2-c2c(O)ccc3ccccc23)cc1 | 15.2 µM (inactive) | 20.2 µM (inactive) | 29.9 µM (inactive) |  | 17.3 µM (inactive) | 22.6 µM (inactive) | 14.9 µM (inactive) | 13.1 µM (inactive) | 15.5 µM (inactive) | 7.23 µM (inactive) | 16.2 µM (inactive) | 31.1 µM (inactive) | 24.7 µM (inactive) | 3.99 µM (inactive) | 17 µM (inactive) | 11.8 µM (inactive) | 22.1 µM (inactive) | 19 µM (inactive) | 16.4 µM (inactive)
3 | N#C/C(=C\c1ccc(F)cc1)c1nc2ccccc2c(=O)[nH]1 |  | > 100 µM (inactive) | > 100 µM (inactive) | > 100 µM (inactive) | > 100 µM (inactive) | 70.6 µM (inactive) | > 100 µM (inactive) | > 100 µM (inactive) | > 100 µM (inactive) | > 100 µM (inactive) | > 100 µM (inactive) | > 100 µM (inactive) | 48.3 µM (inactive) | > 100 µM (inactive) |  | > 100 µM (inactive) | > 100 µM (inactive) | > 100 µM (inactive) | > 100 µM (inactive)
4 | Cc1ccc(/C=C2\N=C(N3CCCCC3)NC2=O)cc1 | > 100 µM (inactive) | > 100 µM (inactive) | > 100 µM (inactive) | > 100 µM (inactive) | > 100 µM (inactive) | > 100 µM (inactive) | > 100 µM (inactive) | > 100 µM (inactive) | > 100 µM (inactive) |  | > 100 µM (inactive) | 71.1 µM (inactive) | > 100 µM (inactive) | > 100 µM (inactive) |  | > 100 µM (inactive) | > 100 µM (inactive) | > 100 µM (inactive) | 
5 | COC(=O)[C@]1(c2cc3ccccc3[nH]2)CC2CN(C(=O)OCc3ccccc3)C1C=C2OC (some centres undefined) | 40.7 µM (inactive) | 22.7 µM (inactive) | 16.8 µM (inactive) | 28.9 µM (inactive) | 42.1 µM (inactive) | 26.6 µM (inactive) | 36.5 µM (inactive) | 38 µM (inactive) | 36.1 µM (inactive) | 37.4 µM (inactive) | 25.8 µM (inactive) | 22.8 µM (inactive) | 19.9 µM (inactive) | 20.7 µM (inactive) |  | 25.6 µM (inactive) | 23 µM (inactive) | 24.9 µM (inactive) | 33.1 µM (inactive)
6 | COc1ccc(C[C@H]2C(=O)O[C@H](C)[C@H](NC(=O)[C@@H](CC(C)C)C(C)C(=O)C3CCCN3C(=O)[C@H](C)O)C(=O)Nc3cccc(c3OC)C(=O)O[C@@H](C(C)C)C(=O)[C@H](C)C(=O)N[C@@H](CC(C)C)C(=O)N3CCC[C@H]3C(=O)N2C)cc1 (some centres undefined) (H-[Lac][X57]T[X58]LP[NMeY](Me); ester 3-C) | > 12.5 µM (inactive) | > 12.5 µM (inactive) | > 12.5 µM (inactive) | > 12.5 µM (inactive) | 11 µM (inactive) | > 12.5 µM (inactive) | > 12.5 µM (inactive) | > 12.5 µM (inactive) | > 12.5 µM (inactive) | 0.372 µM (active) | 12.2 µM (inactive) |  | > 12.5 µM (inactive) | 4.93 µM (inactive) | > 12.5 µM (inactive) | > 12.5 µM (inactive) | > 12.5 µM (inactive) | > 12.5 µM (inactive) | 9.02 µM (inactive)
